Laboratory results: ChEMBL document CHEMBL4507291 (2021)

Key:
[1] = molecular target: Progesterone receptor (Homo sapiens) (UniProt P06401); assay: Inhibition of Progesterone PR-B at 10 µM in the Eurofins-Panlabs radioligand binding assay (Eurofins_assay_268020); parameters: ligand concentration 1.4 nM; details: Compound concentration 10.0 uM
[2] = molecular target: DNA-dependent protein kinase catalytic subunit (Homo sapiens) (UniProt P78527); assay: DNA-PK Kinase screen; details: Compound concentration 1.0 uM
[3] = molecular target: T1, Dual specificity mitogen-activated protein kinase kinase 3 (Homo sapiens) (UniProt P46734); assay: MAP2K3 (MEK3) Kinase screen; details: Compound concentration 1.0 uM
T1 sequence (whole entry): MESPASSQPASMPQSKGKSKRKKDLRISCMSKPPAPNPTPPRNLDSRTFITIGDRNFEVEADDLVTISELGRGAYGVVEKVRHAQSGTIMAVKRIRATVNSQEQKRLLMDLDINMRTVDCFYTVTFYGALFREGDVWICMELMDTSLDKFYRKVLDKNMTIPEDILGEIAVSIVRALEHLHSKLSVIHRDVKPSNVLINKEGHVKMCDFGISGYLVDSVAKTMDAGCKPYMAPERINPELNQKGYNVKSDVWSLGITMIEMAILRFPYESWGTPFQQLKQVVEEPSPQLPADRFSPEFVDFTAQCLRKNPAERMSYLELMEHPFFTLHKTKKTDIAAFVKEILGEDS

[4] = molecular target: LIM domain kinase 1 (Homo sapiens) (UniProt P53667); assay: LIMK1 Kinase screen; details: Compound concentration 1.0 uM
[5] = molecular target: Tyrosine-protein kinase ABL1 (Homo sapiens) (UniProt P00519); assay: ABL1 Kinase screen; details: Compound concentration 1.0 uM
[6] = molecular target: T2, Mitogen-activated protein kinase kinase kinase 2 (Homo sapiens) (UniProt Q9Y2U5); assay: MAP3K2 (MEKK2) Kinase screen; details: Compound concentration 1.0 uM
T2 sequence (whole entry): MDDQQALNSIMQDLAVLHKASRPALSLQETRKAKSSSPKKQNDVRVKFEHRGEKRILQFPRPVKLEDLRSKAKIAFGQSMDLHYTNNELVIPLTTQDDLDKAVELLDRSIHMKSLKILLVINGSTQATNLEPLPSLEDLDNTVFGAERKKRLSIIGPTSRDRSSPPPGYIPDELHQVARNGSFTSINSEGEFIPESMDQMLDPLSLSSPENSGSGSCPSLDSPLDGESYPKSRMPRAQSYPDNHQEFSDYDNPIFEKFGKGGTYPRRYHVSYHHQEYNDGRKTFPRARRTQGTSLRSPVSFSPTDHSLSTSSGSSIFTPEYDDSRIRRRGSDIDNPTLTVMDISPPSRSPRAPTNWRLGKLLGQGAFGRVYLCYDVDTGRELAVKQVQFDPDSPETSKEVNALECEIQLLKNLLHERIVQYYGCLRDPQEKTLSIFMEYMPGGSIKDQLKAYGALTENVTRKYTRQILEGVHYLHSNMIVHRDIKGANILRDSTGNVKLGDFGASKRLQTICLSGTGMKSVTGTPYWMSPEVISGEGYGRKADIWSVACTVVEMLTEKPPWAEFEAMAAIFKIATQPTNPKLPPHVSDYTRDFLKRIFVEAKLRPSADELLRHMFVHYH

[7] = system: Platelet-derived growth factor receptor alpha (Homo sapiens), P16234 [T674I]; assay: PDGFRA T674I Kinase screen; details: Compound concentration 1.0 uM
[8] = molecular target: Phosphodiesterase 3 (Homo sapiens) (UniProt Q14432+Q13370); assay: Inhibition of Phosphodiesterase PDE3 at compound concentration of 10.0 uM in the Eurofins-Panlabs enzyme assay (Eurofins_assay_152000); type: protein assay; parameters: substrate with concentration 1.01 uM [3H] cAMP + cAMP, incubation time 20 min, incubation temperature 25 C; details: Compound concentration 10.0 uM
[9] = molecular target: Protein kinase C beta type (Homo sapiens) (UniProt P05771); assay: PRKCB1 (PKC beta I) Kinase screen; details: Compound concentration 1.0 uM
[10] = molecular target: Tyrosine-protein kinase Lyn (Homo sapiens) (UniProt P07948); assay: LYN A Kinase screen; details: Compound concentration 1.0 uM
[11] = molecular target: Cyclin-dependent kinase 5/CDK5 activator 1 (Homo sapiens) (UniProt Q00535+Q15078); assay: CDK5/p25 Kinase screen; type: protein-complex assay; details: Compound concentration 1.0 uM
[12] = molecular target: 3-phosphoinositide-dependent protein kinase 1 (PDPK1) (Homo sapiens) (UniProt O15530); assay: PDK1 Direct Kinase screen; details: Compound concentration 1.0 uM
[13] = molecular target: Sodium-dependent noradrenaline transporter (Homo sapiens, UniProt P23975); assay: Inhibition of Transporter, Norepinephrine (NET) at compound concentration of 10.0 uM in the Eurofins-Panlabs radioligand binding assay (Eurofins_assay_204410); parameters: ligand concentration 0.2 nM, non-specific ligand with concentration 10 uM Desipramine, incubation time 3 h, incubation temperature 4 C
[14] = molecular target: Glycogen synthase kinase-3 beta (Homo sapiens) (UniProt P49841); assay: GSK3B (GSK3 beta) Kinase screen; details: Compound concentration 1.0 uM
[15] = molecular target: Serine/threonine-protein kinase 24 (Homo sapiens) (UniProt Q9Y6E0); assay: STK24 (MST3) Kinase screen; details: Compound concentration 1.0 uM
[16] = system: Epidermal growth factor receptor (Homo sapiens), P00533 [L861Q]; assay: EGFR (ErbB1) L861Q Kinase screen; details: Compound concentration 1.0 uM
[17] = system: Dual specificity mitogen-activated protein kinase kinase 6 (Homo sapiens), P52564 [S207E,T211E]; assay: MAP2K6 (MKK6) S207E T211E Kinase screen; details: Compound concentration 1.0 uM
[18] = molecular target: Calcium/calmodulin-dependent protein kinase type 1 (Homo sapiens) (UniProt Q14012); assay: CAMK1 (CaMK1) Kinase screen; details: Compound concentration 1.0 uM
[19] = molecular target: Mitogen-activated protein kinase 11 (Homo sapiens) (UniProt Q15759); assay: MAPK11 (p38 beta) Kinase screen; details: Compound concentration 1.0 uM
[20] = molecular target: Protein kinase C zeta type (Homo sapiens) (UniProt Q05513); assay: PRKCZ (PKC zeta) Kinase screen; details: Compound concentration 1.0 uM
[21] = molecular target: Proto-oncogene tyrosine-protein kinase receptor Ret (Homo sapiens) (UniProt P07949); assay: RET Kinase screen; details: Compound concentration 1.0 uM
[22] = molecular target: Eukaryotic elongation factor 2 kinase (Homo sapiens) (UniProt O00418); assay: EEF2K Kinase screen; details: Compound concentration 1.0 uM
[23] = molecular target: T3, Megakaryocyte-associated tyrosine-protein kinase (Homo sapiens) (UniProt P42679); assay: MATK (HYL) Kinase screen; details: Compound concentration 1.0 uM
T3 sequence (whole entry): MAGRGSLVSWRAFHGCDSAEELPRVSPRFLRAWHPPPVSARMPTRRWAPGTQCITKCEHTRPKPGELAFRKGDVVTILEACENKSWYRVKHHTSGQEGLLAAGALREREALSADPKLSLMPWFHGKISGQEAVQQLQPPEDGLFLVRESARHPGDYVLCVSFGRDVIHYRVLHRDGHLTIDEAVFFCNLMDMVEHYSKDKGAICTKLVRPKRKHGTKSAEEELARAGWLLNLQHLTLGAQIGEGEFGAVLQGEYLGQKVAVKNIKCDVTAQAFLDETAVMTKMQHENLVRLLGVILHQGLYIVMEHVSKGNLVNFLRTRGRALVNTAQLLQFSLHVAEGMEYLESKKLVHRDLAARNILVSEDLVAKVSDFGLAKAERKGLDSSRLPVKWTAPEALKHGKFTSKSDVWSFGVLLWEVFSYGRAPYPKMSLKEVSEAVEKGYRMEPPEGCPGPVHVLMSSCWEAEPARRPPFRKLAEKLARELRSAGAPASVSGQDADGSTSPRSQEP

[24] = molecular target: Cyclin-dependent kinase 2/cyclin A (Homo sapiens) (UniProt P24941+P20248+P78396); assay: CDK2/cyclin A Kinase screen; type: protein-complex assay; details: Compound concentration 1.0 uM
[25] = molecular target: Serine/threonine-protein kinase mTOR (Homo sapiens) (UniProt P42345); assay: FRAP1 (mTOR) Kinase screen; details: Compound concentration 1.0 uM

Chain of Serine/threonine-protein kinase 24 (Homo sapiens) (Q9Y6E0 whole entry, looked up): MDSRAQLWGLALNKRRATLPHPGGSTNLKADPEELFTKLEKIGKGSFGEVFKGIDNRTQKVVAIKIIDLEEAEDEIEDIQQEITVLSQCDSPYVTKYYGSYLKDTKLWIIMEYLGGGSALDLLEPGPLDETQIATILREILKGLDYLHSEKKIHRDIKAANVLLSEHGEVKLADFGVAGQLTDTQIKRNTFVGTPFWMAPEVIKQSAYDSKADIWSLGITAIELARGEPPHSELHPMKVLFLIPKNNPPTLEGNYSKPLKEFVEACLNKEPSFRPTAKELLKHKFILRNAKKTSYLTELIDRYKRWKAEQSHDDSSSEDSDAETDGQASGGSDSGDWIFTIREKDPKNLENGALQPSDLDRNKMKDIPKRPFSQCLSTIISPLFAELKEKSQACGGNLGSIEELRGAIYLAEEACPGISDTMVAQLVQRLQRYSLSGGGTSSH
Chain of Glycogen synthase kinase-3 beta (Homo sapiens) (P49841 whole entry, looked up): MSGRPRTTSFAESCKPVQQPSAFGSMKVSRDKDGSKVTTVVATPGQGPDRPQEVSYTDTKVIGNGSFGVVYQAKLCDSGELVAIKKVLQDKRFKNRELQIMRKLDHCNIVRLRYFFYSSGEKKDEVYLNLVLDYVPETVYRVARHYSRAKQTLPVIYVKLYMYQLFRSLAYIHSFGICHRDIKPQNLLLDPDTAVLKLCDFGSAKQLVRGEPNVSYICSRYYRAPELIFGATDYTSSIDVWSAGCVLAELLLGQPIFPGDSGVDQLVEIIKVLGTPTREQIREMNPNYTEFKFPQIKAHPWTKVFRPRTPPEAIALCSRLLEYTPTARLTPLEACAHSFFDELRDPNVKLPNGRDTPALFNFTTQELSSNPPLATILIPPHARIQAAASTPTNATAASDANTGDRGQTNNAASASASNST
Chain of Calcium/calmodulin-dependent protein kinase type 1 (Homo sapiens) (Q14012 whole entry, looked up): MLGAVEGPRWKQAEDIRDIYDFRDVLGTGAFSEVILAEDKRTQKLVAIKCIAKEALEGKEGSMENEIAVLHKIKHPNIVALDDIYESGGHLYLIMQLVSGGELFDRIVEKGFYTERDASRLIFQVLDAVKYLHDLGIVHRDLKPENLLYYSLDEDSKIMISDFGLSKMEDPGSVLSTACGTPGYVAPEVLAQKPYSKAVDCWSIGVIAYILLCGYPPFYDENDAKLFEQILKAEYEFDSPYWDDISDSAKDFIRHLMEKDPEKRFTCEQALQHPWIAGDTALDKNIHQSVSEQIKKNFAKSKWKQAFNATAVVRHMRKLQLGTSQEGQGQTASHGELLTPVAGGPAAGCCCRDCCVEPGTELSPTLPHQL
Chain of Progesterone receptor (Homo sapiens) (P06401 whole entry): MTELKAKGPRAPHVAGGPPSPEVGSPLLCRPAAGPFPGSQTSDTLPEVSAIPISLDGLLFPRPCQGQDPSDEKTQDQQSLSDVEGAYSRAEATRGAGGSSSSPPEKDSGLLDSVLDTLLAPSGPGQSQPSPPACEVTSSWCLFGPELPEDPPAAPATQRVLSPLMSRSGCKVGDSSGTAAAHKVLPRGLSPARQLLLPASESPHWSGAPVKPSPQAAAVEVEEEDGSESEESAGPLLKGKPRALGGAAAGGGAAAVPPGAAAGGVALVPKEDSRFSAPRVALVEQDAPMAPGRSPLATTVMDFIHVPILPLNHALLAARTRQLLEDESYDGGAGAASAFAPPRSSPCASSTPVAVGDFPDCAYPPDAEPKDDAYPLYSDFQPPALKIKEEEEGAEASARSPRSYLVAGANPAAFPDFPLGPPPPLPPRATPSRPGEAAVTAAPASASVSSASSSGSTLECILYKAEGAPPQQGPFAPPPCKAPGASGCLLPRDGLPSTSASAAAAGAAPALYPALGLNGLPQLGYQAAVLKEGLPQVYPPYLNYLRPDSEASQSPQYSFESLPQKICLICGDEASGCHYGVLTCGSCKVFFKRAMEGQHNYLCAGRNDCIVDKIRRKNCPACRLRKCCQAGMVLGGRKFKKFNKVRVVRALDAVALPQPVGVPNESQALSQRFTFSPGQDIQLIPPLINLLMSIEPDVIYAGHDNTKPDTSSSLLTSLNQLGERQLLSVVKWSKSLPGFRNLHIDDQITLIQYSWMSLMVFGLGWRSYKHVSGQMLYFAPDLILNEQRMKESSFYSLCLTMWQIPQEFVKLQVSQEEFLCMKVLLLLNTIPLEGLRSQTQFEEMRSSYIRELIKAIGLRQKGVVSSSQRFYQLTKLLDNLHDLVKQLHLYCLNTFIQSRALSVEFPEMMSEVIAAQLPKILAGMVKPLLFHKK
Chain of Tyrosine-protein kinase Lyn (Homo sapiens) (P07948 2-512 limits assumed): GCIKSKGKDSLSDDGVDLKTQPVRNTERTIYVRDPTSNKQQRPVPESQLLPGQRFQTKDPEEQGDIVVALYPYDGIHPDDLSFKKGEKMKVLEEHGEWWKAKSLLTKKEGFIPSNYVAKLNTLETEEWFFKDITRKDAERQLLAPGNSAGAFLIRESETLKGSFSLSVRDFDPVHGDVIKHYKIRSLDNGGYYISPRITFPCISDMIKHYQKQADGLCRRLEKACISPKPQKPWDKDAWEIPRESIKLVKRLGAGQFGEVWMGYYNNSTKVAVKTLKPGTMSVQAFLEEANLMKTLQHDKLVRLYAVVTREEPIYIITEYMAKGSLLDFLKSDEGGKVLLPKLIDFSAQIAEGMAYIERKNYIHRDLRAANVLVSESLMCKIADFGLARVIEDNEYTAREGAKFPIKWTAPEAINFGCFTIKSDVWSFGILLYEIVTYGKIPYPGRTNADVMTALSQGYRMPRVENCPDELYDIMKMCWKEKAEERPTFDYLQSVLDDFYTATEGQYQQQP
Chain of Proto-oncogene tyrosine-protein kinase receptor Ret (Homo sapiens) (P07949 whole entry): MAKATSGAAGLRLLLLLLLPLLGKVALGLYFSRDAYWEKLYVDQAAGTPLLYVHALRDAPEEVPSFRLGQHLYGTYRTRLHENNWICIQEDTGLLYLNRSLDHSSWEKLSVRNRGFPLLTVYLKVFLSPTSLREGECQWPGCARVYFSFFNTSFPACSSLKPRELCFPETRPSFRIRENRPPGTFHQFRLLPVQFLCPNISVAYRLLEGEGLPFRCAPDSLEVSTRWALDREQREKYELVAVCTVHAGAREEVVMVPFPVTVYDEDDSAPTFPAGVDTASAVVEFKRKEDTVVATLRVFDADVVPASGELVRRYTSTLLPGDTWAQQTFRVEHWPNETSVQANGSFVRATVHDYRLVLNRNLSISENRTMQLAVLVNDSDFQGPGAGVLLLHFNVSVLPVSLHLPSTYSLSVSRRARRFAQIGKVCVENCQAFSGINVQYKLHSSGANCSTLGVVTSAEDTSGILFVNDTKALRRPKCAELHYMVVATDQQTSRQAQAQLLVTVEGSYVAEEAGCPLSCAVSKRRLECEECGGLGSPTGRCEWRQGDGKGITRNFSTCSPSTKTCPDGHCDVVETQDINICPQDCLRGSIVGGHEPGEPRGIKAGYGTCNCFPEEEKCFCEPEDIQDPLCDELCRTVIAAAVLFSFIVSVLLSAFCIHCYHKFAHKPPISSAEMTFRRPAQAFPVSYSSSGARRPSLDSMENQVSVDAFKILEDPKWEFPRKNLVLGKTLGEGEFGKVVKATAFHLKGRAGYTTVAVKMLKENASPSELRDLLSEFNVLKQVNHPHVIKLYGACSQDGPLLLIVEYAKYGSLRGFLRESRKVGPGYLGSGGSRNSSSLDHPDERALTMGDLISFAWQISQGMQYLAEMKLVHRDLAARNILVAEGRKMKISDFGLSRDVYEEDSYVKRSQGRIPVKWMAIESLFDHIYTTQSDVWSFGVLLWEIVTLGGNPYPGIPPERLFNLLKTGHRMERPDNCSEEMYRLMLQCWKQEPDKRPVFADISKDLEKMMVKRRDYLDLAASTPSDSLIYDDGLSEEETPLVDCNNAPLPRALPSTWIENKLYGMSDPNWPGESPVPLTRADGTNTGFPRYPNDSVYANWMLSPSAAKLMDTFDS
Chain of Epidermal growth factor receptor (Homo sapiens), P00533 [L861Q] (P00533 whole entry L861Q): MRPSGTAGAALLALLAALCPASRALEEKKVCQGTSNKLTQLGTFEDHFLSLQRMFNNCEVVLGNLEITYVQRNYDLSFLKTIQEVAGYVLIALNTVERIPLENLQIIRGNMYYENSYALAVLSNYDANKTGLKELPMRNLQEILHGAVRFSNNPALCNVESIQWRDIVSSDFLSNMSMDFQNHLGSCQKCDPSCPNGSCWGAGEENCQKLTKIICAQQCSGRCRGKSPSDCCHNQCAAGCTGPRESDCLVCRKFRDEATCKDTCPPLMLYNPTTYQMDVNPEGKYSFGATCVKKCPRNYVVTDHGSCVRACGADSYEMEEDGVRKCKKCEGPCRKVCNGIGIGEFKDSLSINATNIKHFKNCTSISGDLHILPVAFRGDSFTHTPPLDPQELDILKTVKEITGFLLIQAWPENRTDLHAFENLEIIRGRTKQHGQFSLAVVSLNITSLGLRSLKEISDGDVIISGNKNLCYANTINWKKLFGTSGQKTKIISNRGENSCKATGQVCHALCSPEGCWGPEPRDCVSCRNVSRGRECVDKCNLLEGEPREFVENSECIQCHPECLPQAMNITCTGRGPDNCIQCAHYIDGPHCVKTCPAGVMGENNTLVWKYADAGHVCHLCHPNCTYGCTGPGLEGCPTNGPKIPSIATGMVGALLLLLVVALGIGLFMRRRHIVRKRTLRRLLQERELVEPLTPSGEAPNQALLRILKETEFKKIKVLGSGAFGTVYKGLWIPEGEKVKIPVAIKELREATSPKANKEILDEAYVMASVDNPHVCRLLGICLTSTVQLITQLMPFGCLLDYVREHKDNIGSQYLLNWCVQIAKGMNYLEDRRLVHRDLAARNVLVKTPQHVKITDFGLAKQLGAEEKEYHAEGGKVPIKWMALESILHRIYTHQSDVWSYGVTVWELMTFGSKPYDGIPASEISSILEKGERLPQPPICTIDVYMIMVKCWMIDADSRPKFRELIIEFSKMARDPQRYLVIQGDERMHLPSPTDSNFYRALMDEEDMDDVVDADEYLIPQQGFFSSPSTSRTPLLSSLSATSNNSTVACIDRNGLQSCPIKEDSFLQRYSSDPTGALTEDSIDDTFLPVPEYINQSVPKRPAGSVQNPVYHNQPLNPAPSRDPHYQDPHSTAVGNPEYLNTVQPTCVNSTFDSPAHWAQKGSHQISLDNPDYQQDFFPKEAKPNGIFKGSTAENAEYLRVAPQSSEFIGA

Q: What does the source list for `C[C@@H]1CN(c2cc(-c3n[nH]c4ccc(OC5(C)CC5)cc34)ncn2)C[C@H](C)O1` [MLi-2]?
A: inhibition [1]: 30%; inhibition [2]: 21.6%; inhibition [3]: -2.3%; inhibition [4]: 11%; inhibition [5]: 1.09%; inhibition [6]: 7.58%; inhibition [7]: 23.5%; inhibition [8]: 21%; inhibition [9]: -7.69%; inhibition [10]: 1.05%; inhibition [11]: -2.71%; inhibition [12]: -2.36%; Ki [13]: 3.79 µM; inhibition [14]: 3.53%; inhibition [15]: 7.34%; inhibition [16]: 9.16%; inhibition [17]: -1.97%; inhibition [18]: -4.05%; inhibition [19]: 13%; inhibition [20]: -4.02%; inhibition [21]: 5.76%; inhibition [22]: 4.28%; inhibition [23]: 3.28%; inhibition [24]: 1.13%; inhibition [25]: 7.14%
